Results taken from ChEMBL document CHEMBL1201862, “PubChem BioAssay data set” (2004).
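Briefly, cells in 96-well plates were exposed to five compound concentrations for 48 h, and endpoints were estimated by linear interpolation. GI50 is the concentration that inhibits growth by half.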 Active and inactive are the calls of the source. No stated cut-off is given here; in the data, active = GI50 up to about 1.1 µM and inactive = higher.

Legend:
Assay in all cases: NCI-60 cell line screen, 48 h
786-0 = test system: 786-0
A498 = test system: A498
A549 = test system: A549
ACHN = test system: ACHN
CAKI-1 = test system: CAKI-1
CCRF-CEM = test system: CCRF-CEM
COLO 205 = test system: COLO 205
DLD-1 = test system: DLD-1
DMS-114 = test system: DMS-114
EKVX = test system: EKVX
HCC 2998 = test system: HCC 2998
HCT-116 = test system: HCT-116
HCT-15 = test system: HCT-15
HL-60 = test system: HL-60
HOP-62 = test system: HOP-62
HOP-92 = test system: HOP-92
HT-29 = test system: HT-29
IGROV-1 = test system: IGROV-1
K562 = test system: K562
KM-20L2 = test system: KM-20L2
KM12 = test system: KM12
LOX IMVI = test system: LOX IMVI
LXFL 529 = test system: LXFL 529
M14 = test system: M14
M19-MEL = test system: M19-MEL
MOLT-4 = test system: MOLT-4
Malme-3M = test system: Malme-3M
NCI-H226 = test system: NCI-H226
NCI-H23 = test system: NCI-H23
NCI-H460 = test system: NCI-H460
NCI-H522 = test system: NCI-H522
OVCAR-3 = test system: OVCAR-3
OVCAR-4 = test system: OVCAR-4
OVCAR-5 = test system: OVCAR-5
OVCAR-8 = test system: OVCAR-8
RPMI-8226 = test system: RPMI-8226
RXF 393 = test system: RXF 393
RXF 631 = test system: RXF 631
SF-268 = test system: SF-268
SF-295 = test system: SF-295
SF-539 = test system: SF-539
SK-MEL-28 = test system: SK-MEL-28
SK-MEL-5 = test system: SK-MEL-5
SK-OV-3 = test system: SK-OV-3
SN12C = test system: SN12C
SNB-19 = test system: SNB-19
SNB-75 = test system: SNB-75
SNB-78 = test system: SNB-78
SR = test system: SR
SW-620 = test system: SW-620
TK-10 = test system: TK-10
U-251 = test system: U-251
UACC-257 = test system: UACC-257
UACC-62 = test system: UACC-62
UO-31 = test system: UO-31
XF498 = test system: XF498
DMS-273 = test system: DMS-273

## O=C1C2C(C(=O)N1Cc1ccccc1)N(Cc1ccccc1)C(=O)N2Cc1ccccc1 (stereo not given)
786-0
  GI50: > 100 µM (inactive)
A498
  GI50: > 100 µM (inactive)
A549
  GI50: > 100 µM (inactive)
ACHN
  GI50: > 100 µM (inactive)
CAKI-1
  GI50: > 100 µM (inactive)
CCRF-CEM
  GI50: > 100 µM (inactive)
COLO 205
  GI50: > 100 µM (inactive)
DLD-1
  GI50: > 100 µM (inactive)
DMS-114
  GI50: > 100 µM (inactive)
EKVX
  GI50: > 100 µM (inactive)
HCC 2998
  GI50: > 100 µM (inactive)
HCT-116
  GI50: > 100 µM (inactive)
HCT-15
  GI50: > 100 µM
HL-60
  GI50: > 100 µM (inactive)
HOP-62
  GI50: > 100 µM (inactive)
HOP-92
  GI50: > 100 µM (inactive)
HT-29
  GI50: > 100 µM (inactive)
IGROV-1
  GI50: > 100 µM (inactive)
K562
  GI50: > 100 µM (inactive)
KM-20L2
  GI50: > 100 µM (inactive)
KM12
  GI50: > 100 µM (inactive)
LOX IMVI
  GI50: > 100 µM (inactive)
LXFL 529
  GI50: > 100 µM (inactive)
M14
  GI50: > 100 µM (inactive)
M19-MEL
  GI50: > 100 µM (inactive)
MOLT-4
  GI50: > 100 µM (inactive)
Malme-3M
  GI50: > 100 µM (inactive)
NCI-H226
  GI50: > 100 µM (inactive)
NCI-H23
  GI50: > 100 µM (inactive)
NCI-H460
  GI50: > 100 µM (inactive)
NCI-H522
  GI50: > 100 µM (inactive)
OVCAR-3
  GI50: > 100 µM (inactive)
OVCAR-4
  GI50: > 100 µM (inactive)
OVCAR-5
  GI50: > 100 µM (inactive)
OVCAR-8
  GI50: > 100 µM (inactive)
RPMI-8226
  GI50: > 100 µM (inactive)
RXF 393
  GI50: > 100 µM (inactive)
RXF 631
  GI50: > 100 µM (inactive)
SF-268
  GI50: > 100 µM (inactive)
SF-295
  GI50: > 100 µM (inactive)
SF-539
  GI50: > 100 µM (inactive)
SK-MEL-28
  GI50: > 100 µM (inactive)
SK-MEL-5
  GI50: > 100 µM (inactive)
SK-OV-3
  GI50: > 100 µM (inactive)
SN12C
  GI50: > 100 µM (inactive)
SNB-19
  GI50: > 100 µM (inactive)
SNB-75
  GI50: 59.3 µM (inactive)
SNB-78
  GI50: > 100 µM (inactive)
SR
  GI50: > 100 µM (inactive)
SW-620
  GI50: > 100 µM (inactive)
TK-10
  GI50: > 100 µM (inactive)
U-251
  GI50: > 100 µM (inactive)
UACC-257
  GI50: > 100 µM (inactive)
UACC-62
  GI50: > 100 µM (inactive)
UO-31
  GI50: > 100 µM (inactive)
XF498
  GI50: > 100 µM (inactive)

## COC(=O)N/N=C/c1oc(-c2ccccc2)c(-c2ccccc2)c1[N+](=O)[O-]
786-0
  GI50: > 100 µM (inactive)
A549
  GI50: > 100 µM (inactive)
ACHN
  GI50: > 100 µM (inactive)
CAKI-1
  GI50: > 100 µM (inactive)
COLO 205
  GI50: > 100 µM (inactive)
DLD-1
  GI50: > 100 µM (inactive)
DMS-114
  GI50: > 100 µM (inactive)
DMS-273
  GI50: > 100 µM (inactive)
HCC 2998
  GI50: > 100 µM (inactive)
HCT-116
  GI50: > 100 µM (inactive)
HCT-15
  GI50: > 100 µM
HL-60
  GI50: > 100 µM (inactive)
HOP-62
  GI50: > 100 µM (inactive)
HOP-92
  GI50: > 100 µM (inactive)
HT-29
  GI50: > 100 µM (inactive)
IGROV-1
  GI50: > 100 µM (inactive)
K562
  GI50: > 100 µM (inactive)
KM-20L2
  GI50: > 100 µM (inactive)
KM12
  GI50: > 100 µM (inactive)
LOX IMVI
  GI50: > 100 µM (inactive)
LXFL 529
  GI50: > 100 µM (inactive)
M14
  GI50: > 100 µM (inactive)
M19-MEL
  GI50: > 100 µM (inactive)
MOLT-4
  GI50: > 100 µM (inactive)
Malme-3M
  GI50: > 100 µM (inactive)
NCI-H226
  GI50: > 100 µM (inactive)
NCI-H23
  GI50: > 100 µM (inactive)
NCI-H460
  GI50: > 100 µM (inactive)
NCI-H522
  GI50: > 100 µM (inactive)
OVCAR-3
  GI50: > 100 µM (inactive)
OVCAR-4
  GI50: > 100 µM (inactive)
OVCAR-5
  GI50: > 100 µM (inactive)
OVCAR-8
  GI50: > 100 µM (inactive)
RPMI-8226
  GI50: > 100 µM (inactive)
RXF 393
  GI50: > 100 µM (inactive)
RXF 631
  GI50: > 100 µM (inactive)
SF-268
  GI50: > 100 µM (inactive)
SF-295
  GI50: > 100 µM (inactive)
SF-539
  GI50: > 100 µM (inactive)
SK-MEL-28
  GI50: > 100 µM (inactive)
SK-MEL-5
  GI50: > 100 µM (inactive)
SK-OV-3
  GI50: > 100 µM (inactive)
SN12C
  GI50: > 100 µM (inactive)
SNB-19
  GI50: > 100 µM (inactive)
SNB-75
  GI50: > 100 µM (inactive)
SNB-78
  GI50: > 100 µM (inactive)
SR
  GI50: > 100 µM (inactive)
SW-620
  GI50: > 100 µM (inactive)
TK-10
  GI50: > 100 µM (inactive)
U-251
  GI50: > 100 µM (inactive)
UACC-257
  GI50: > 100 µM (inactive)
UACC-62
  GI50: > 100 µM (inactive)
UO-31
  GI50: > 100 µM (inactive)
XF498
  GI50: > 100 µM (inactive)
